The source of these data is ChEMBL document CHEMBL4393673, “Design, synthesis and biological evaluation of pyridine-chalcone derivatives as novel microtubule-destabilizing agents” (Eur J Med Chem, 2019).

Series [1] concerns H22. Briefly: Antitumor activity against mouse H22 cells allografted in ICR mouse assessed as reduction in tumour weight at 20 mg/kg, iv administered once per day for 21 days relative to control. Format: functional. The note with it: 504 h.
The nature of series [2]: Toxicity in ICR mouse allografted with mouse H22 cells assessed as body weight loss at 6 mg/kg, iv administered once per 2 days for 21 days. As to conditions: in vivo. Type of series: organism-based.
Series [3] relates to H22. Briefly: Antitumor activity against mouse H22 cells allografted in ICR mouse assessed as reduction in tumour weight at 6 mg/kg, iv administered once per 2 days for 21 days relative to control. Type of series: functional.
Series [4] is described as follows: Antiproliferative activity against […] cells assessed as reduction in cell viability after 72 hrs by MTT assay. Type of series: functional, cell-based. The note with it: H22, 72 h.
Another series has as its system MDA-MB-231. Briefly: cells. The note with it: Homo sapiens, MDA-MB-231, 72 h.
Another series has as its system HCT-8. In words: Antiproliferative activity against human HCT8 cells assessed as reduction in cell viability after 72 hrs by MTT assay. The note with it: HCT-8, 72 h. Format: functional, cell-based. For orientation: Formazan colour is commonly taken as a measure of viable cells.
The test system of a further series is KB. Briefly: Antiproliferative activity against human KB cells assessed as reduction in cell viability after 72 hrs by MTT assay. Type of series: functional, cell-based.
Series [5] has as its target T1, Tubulin (Homo sapiens) (UniProt P68371+Q9H4B7+P0DPH7+P68366+Q13509+Q71U36+P04350+Q3ZCM7+P07437+P68363+Q9BQE3+Q6PEY2+Q13885+Q9BVA1+Q9BUF5). In words: Inhibition of tubulin polymerization in human K562 cells assessed as disruption of cytosolic microtubule networks after 24 hrs by DAPI staining based immunofluorescence microscopic method. Type of series: cell-based.

In series [6] the target is T2, Tubulin (Sus scrofa) (UniProt P02554+P02550). Briefly: Inhibition of [3H]colchicine binding to biotinylated porcine tubulin at 1 uM in presence of GTP after 2 hrs by scintillation proximity assay relative to control. Format: protein assay. In general terms: SPA uses beads or plates that emit light when radiolabelled molecules are held near them.
The target in series [7] is T2, Tubulin (Sus scrofa). In words: Inhibition of [3H]colchicine binding to biotinylated porcine tubulin at 5 uM in presence of GTP after 2 hrs by scintillation proximity assay relative to control. Type of series: protein assay.
A further series concerns the target Tubulin. Briefly: Inhibition of tubulin polymerization (unknown origin) in presence of GTP measured after 60 mins by spectrophotometric method. Format: protein-complex assay, Homo sapiens.
For series [8], the target named is T1, Tubulin (Homo sapiens). Briefly: Inhibition of tubulin polymerization in human MDA-MB-231 cells assessed as disruption of cytosolic microtubule networks after 24 hrs by DAPI staining based immunofluorescence microscopic method. Type of series: cell-based.
The next series has as its system L02. Briefly: cells. The note with it: Homo sapiens, L02, 72 h.
Another series concerns K562. Briefly: Antiproliferative activity against human K562 cells assessed as reduction in cell viability after 72 hrs by MTT assay. As to conditions: K562, 72 h. Type of series: functional, cell-based.

The structures appear in SMILES notation. pIC50: −log10 of the molar value.

T2 sequence (P02550 whole entry, looked up): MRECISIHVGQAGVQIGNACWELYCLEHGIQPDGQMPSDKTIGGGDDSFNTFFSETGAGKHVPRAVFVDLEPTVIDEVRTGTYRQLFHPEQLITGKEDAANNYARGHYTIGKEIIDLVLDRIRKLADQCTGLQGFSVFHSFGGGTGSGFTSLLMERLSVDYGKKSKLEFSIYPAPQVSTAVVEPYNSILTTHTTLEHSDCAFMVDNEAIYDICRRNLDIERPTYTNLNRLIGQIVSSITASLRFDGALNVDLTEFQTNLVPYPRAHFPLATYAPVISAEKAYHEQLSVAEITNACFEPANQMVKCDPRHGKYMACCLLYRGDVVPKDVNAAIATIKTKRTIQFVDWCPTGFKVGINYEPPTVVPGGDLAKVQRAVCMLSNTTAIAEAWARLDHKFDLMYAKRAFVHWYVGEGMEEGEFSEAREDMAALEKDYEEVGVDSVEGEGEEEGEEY
T2 sequence (P02554 whole entry, looked up): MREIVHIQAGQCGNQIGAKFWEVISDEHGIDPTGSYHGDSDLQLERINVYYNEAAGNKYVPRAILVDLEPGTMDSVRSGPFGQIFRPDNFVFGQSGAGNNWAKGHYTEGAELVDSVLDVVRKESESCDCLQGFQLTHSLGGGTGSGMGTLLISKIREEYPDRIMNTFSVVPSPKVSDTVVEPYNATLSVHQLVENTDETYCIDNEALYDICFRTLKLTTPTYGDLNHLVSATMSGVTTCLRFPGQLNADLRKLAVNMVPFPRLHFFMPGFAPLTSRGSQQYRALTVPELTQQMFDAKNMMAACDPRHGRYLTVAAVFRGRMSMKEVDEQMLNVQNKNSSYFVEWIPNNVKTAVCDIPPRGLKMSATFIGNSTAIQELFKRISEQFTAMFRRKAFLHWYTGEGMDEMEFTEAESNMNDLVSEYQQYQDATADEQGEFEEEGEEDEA
Description for L02: Cytotoxicity against human LO2 cells assessed as reduction in cell viability after 72 hrs by MTT assay
Description for MDA-MB-231: Antiproliferative activity against human MDA-MB-231 cells assessed as reduction in cell viability after 72 hrs by MTT assay

What is called inhibition in vivo is the change of the read-out against control, counted positive when it falls. Consider `COc1ccc(/C=C\c2cc(OC)c(OC)c(OC)c2)cc1OP(=O)(O)O` [FOSBRETABULIN DISODIUM], for which the inhibition in vivo at 20 mg/kg in the series on H22 [1] worked out at 62.7%.
On to `CC(=O)O[C@H]1C(=O)[C@@]2(C)[C@H]([C@H](OC(=O)c3ccccc3)[C@]3(O)C[C@H](OC(=O)[C@H](O)[C@@H](NC(=O)c4ccccc4)c4ccccc4)C(C)=C1C3(C)C)[C@]1(OC(C)=O)CO[C@@H]1C[C@@H]2O` [PACLITAXEL], for which the Activity result in [2] is “Toxic”. The inhibition in vivo at 6 mg/kg in the series on H22 [3] came out at 72.7%.
The pIC50 is the negative decadic logarithm of the IC50, by convention in mol/L. Turning to `COc1ccc(/C=C\c2cc(OC)c(OC)c(OC)c2)cc1O` [COMBRETASTATIN A4], the inhibition in vivo at 20 mg/kg in the series on H22 [1] amounted to 50.9%. Further, the pIC50 in series [4] was 8.10; with MDA-MB-231, 8.00; in the series on HCT-8, 8.00; with KB, 7.96.
Usually inhibition stands for the share of the control response that was lost under treatment. Turning to `COc1cc(C(=O)/C(C)=C/c2ccc(OC)c(O)c2)cc(OC)n1`, the Activity entry on Tubulin (Homo sapiens) [5] and at Tubulin (Homo sapiens) [8] was “Dose-dependent effect” in each case. Moreover, the inhibition worked out at 75.1% on Tubulin (Sus scrofa) [6] and 87.9% at Tubulin (Sus scrofa) [7]. In addition, the pIC50 on Tubulin was 5.68.
Consider `COc1ccc(/C=C/C(=O)c2cc(OC)c(OC)c(OC)c2)cc1O`, for which the negative logarithm of the IC50 (pIC50) in series [4] was 6.88; in the series with L02, 6.38; in the series on K562, 7.17; on Tubulin, 5.52. Besides, the results for the inhibition on Tubulin (Sus scrofa) [6] and on Tubulin (Sus scrofa) [7] were 70.2% and 78.3%, respectively.
